Assay results as given in the CheMixHub ionic liquid set.

Assay: xn = mol fraction of the nth substance listed
Conditions: 100 kPa

C[NH2+]CCC=C1c2ccccc2CCc2ccccc21.[Cl-] + CCCC[n+]1ccn(C)c1.[Br-] + O
viscosity [mPa·s]
Conditions | 288.15 K | 298.15 K | 308.15 K | 318.15 K
x1 = 0.0001975, x2 = 0.0001801 | 1.159 | 0.927 | 0.763 | 0.646
x1 = 0.0002159, x2 = 0.00126 | 1.172 | 0.944 | 0.778 | 0.661
x1 = 0.0002212, x2 = 0.0007201 | 1.165 | 0.934 | 0.77 | 0.654
x1 = 0.0005439, x2 = 0.0001801 | 1.169 | 0.936 | 0.771 | 0.655
x1 = 0.0005594, x2 = 0.001259 | 1.182 | 0.953 | 0.787 | 0.671
x1 = 0.0005644, x2 = 0.0007199 | 1.176 | 0.943 | 0.779 | 0.664
x1 = 0.0009069, x2 = 0.0007196 | 1.187 | 0.952 | 0.788 | 0.674
x1 = 0.0009097, x2 = 0.00018 | 1.18 | 0.946 | 0.78 | 0.664
x1 = 0.0009344, x2 = 0.001259 | 1.193 | 0.963 | 0.796 | 0.68
x1 = 0.001275, x2 = 0.001258 | 1.204 | 0.973 | 0.805 | 0.689
x1 = 0.001278, x2 = 0.0001799 | 1.192 | 0.956 | 0.789 | 0.673
x1 = 0.001293, x2 = 0.0007194 | 1.199 | 0.961 | 0.797 | 0.682
x1 = 0.001648, x2 = 0.0007191 | 1.211 | 0.971 | 0.806 | 0.691
x1 = 0.001659, x2 = 0.0001799 | 1.204 | 0.967 | 0.798 | 0.681
x1 = 0.001665, x2 = 0.001258 | 1.216 | 0.984 | 0.814 | 0.698
x1 = 0.002, x2 = 0.0001798 | 1.217 | 0.978 | 0.807 | 0.689
x1 = 0.002031, x2 = 0.0007188 | 1.224 | 0.982 | 0.815 | 0.699
x1 = 0.002035, x2 = 0.001257 | 1.229 | 0.995 | 0.823 | 0.707
x1 = 0.002363, x2 = 0.0001797 | 1.23 | 0.989 | 0.816 | 0.697
x1 = 0.002378, x2 = 0.001257 | 1.243 | 1.006 | 0.832 | 0.715
x1 = 0.002383, x2 = 0.0007186 | 1.237 | 0.993 | 0.824 | 0.707
x1 = 0.002737, x2 = 0.0001797 | 1.244 | 1 | 0.826 | 0.705
x1 = 0.00275, x2 = 0.001256 | 1.257 | 1.018 | 0.842 | 0.723
x1 = 0.002759, x2 = 0.0007183 | 1.251 | 1.005 | 0.834 | 0.715
x1 = 0.003096, x2 = 0.001256 | 1.272 | 1.03 | 0.853 | 0.731
x1 = 0.003103, x2 = 0.0001796 | 1.258 | 1.012 | 0.836 | 0.713
x1 = 0.00311, x2 = 0.000718 | 1.265 | 1.019 | 0.845 | 0.723
x1 = 0.003471, x2 = 0.0001795 | 1.273 | 1.024 | 0.847 | 0.721
x1 = 0.003493, x2 = 0.001255 | 1.287 | 1.043 | 0.864 | 0.738
x1 = 0.003504, x2 = 0.0007178 | 1.28 | 1.033 | 0.856 | 0.731
